# Laboratory results reported in patent publication US10414811B2, “Protease-resistant lipidated GLP-1 analogs” (MEDIMMUNE LIMITED, priority 2015, dated 2019).
# pEC50: −log10 of the molar value. Like-named read-outs stand apart in the source and are kept apart here. Numbered stars: 1 amine (or outer) side, 2 acyl side, 3 side chain; on linkers, the order of the positions; unused ones are H or OH. Square brackets hold non-standard residues; d marks the D form. Side chains are listed from the residue outwards. Peptide text beside a SMILES is read from it. * marks the point of attachment. γGlu = O=C(O)[C@H](CCC(=O)[*:2])N[*:1]; Palmitoyl = CCCCCCCCCCCCCCCC(=O)*; αMeF = C[C@](N)(Cc1ccccc1)C(=O)O; αMeK = C[C@](N)(CCCCN)C(=O)O; αMeS = C[C@](N)(CO)C(=O)O; Aib = CC(C)(N)C(=O)O
# Legend:
# Format in all cases: cell-based
# [1] = target: T1, human GLP-1 receptor (GLP-1R) (Homo sapiens, UniProt P43220); experiment: cAMP assay, human GLP-1R cells; settings: for pEC50: cAMP assay; for EC50: mean of n1 and n2, read-out: Mean pM GLP-1R
# T1 construct: expressed in transfected cells
# T1 sequence (P43220 24-463): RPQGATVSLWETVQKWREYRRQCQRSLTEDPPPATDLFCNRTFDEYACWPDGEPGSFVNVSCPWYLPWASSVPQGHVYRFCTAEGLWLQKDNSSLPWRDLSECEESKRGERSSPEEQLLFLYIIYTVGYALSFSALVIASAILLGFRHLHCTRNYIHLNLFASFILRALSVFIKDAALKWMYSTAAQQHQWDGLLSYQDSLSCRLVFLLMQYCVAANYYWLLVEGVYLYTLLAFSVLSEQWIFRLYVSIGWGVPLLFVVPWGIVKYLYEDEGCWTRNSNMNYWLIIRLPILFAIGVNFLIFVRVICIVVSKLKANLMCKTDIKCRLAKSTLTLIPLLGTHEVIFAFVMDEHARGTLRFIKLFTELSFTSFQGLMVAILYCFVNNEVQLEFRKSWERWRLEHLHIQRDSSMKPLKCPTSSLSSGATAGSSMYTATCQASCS
# Summary of the method: (§1)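 Peptide-stimulated cAMP measured by two-step HTRF after a 30 min room-temperature incubation with receptor-expressing cells (hGLP-1R, hGIPR at 1×10^5 cells/ml; hGCGR at 2×10^5 cells/ml). Duplicate dilutions; EC50 from 4-parameter logistic fit of % Delta F.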
# [2] = target: T2, human glucagon receptor (GCGR) (Homo sapiens, UniProt P47871); experiment: cAMP assay, human GCGR cells; settings: cAMP assay
# T2 construct: expressed in transfected cells
# T2 sequence (P47871 26-477): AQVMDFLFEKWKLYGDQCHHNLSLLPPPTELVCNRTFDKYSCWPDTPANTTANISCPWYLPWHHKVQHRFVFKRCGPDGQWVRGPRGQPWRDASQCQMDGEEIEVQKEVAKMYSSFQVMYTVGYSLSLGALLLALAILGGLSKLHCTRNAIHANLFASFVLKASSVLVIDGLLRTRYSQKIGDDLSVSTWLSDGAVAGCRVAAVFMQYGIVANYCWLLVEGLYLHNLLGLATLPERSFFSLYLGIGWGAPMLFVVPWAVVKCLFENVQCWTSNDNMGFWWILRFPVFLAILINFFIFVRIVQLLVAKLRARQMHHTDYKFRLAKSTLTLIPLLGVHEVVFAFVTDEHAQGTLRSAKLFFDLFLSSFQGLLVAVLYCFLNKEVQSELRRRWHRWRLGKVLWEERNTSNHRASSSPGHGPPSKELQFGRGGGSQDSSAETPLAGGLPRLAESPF
# Summary of the method: as §1
# [3] = target: T3, human glucose-dependent insulinotropic peptide receptor (GIPR) (Homo sapiens, UniProt P48546); experiment: cAMP assay, human GIPR cells; settings: cAMP assay
# T3 construct: expressed in transfected cells
# T3 sequence (P48546 22-466): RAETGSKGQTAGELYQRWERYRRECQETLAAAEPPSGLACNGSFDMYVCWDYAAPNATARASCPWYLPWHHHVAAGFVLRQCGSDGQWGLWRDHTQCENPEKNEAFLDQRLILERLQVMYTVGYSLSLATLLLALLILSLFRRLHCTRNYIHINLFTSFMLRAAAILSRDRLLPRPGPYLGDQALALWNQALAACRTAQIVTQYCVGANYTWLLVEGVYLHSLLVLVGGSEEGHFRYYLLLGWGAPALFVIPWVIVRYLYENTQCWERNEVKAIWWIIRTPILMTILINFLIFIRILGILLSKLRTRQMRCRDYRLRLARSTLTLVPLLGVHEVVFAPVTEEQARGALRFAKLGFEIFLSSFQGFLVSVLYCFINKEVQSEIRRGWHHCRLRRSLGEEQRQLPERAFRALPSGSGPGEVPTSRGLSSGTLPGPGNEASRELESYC
# Summary of the method: as §1
# [4] = first determination (n1), read-out: Primary assay EC50 GLP-1R n1
# [5] = second determination (n2), read-out: Primary assay EC50 GLP-1R n2
# [6] = first determination (n1), read-out: Primary assay EC50 Gluc-R (n1)
# [7] = second determination (n2), read-out: Primary assay EC50 Gluc-R (n2)
# [8] = first determination (n1), read-out: Primary assay EC50 GIP-R (n1)
# [9] = second determination (n2), read-out: Primary assay EC50 GIP-R (n2)
SMILES,"pEC50 [1, 4]","pEC50 [1, 5]",EC50 [1] [pM],"pEC50 [2, 6]","pEC50 [2, 7]","pEC50 [3, 8]","pEC50 [3, 9]"
CC[C@H](C)[C@H](NC(=O)[C@H](Cc1ccccc1)NC(=O)[C@H](CCC(=O)O)NC(=O)[C@H](CCCCN)NC(=O)[C@H](C)NC(=O)[C@H](C)NC(=O)[C@H](CCC(N)=O)NC(=O)CNC(=O)[C@H](CCC(=O)O)NC(=O)[C@H](CC(C)C)NC(=O)[C@H](Cc1ccc(O)cc1)NC(=O)[C@H](CO)NC(=O)C(C)(C)NC(=O)[C@@H](NC(=O)[C@H](CC(=O)O)NC(=O)C(C)(C)NC(=O)[C@@H](NC(=O)[C@H](Cc1ccccc1)NC(=O)[C@@H](NC(=O)CNC(=O)[C@H](CCC(=O)O)NC(=O)C(C)(C)NC(=O)[C@@H](N)Cc1c[nH]cn1)[C@@H](C)O)[C@@H](C)O)C(C)C)C(=O)N[C@@H](C)C(=O)N[C@@H](Cc1c[nH]c2ccccc12)C(=O)N[C@@H](CC(C)C)C(=O)N[C@H](C(=O)N[C@@H](CCCCN)C(=O)NCC(=O)N[C@@H](CCCNC(=N)N)C(N)=O)C(C)C [compound 24] (H-H[Aib]EGTFT[Aib]DV[Aib]SYLEGQAAKEFIAWLVKGR-NH2),8.48,8.10,5600,≤ 6.13,≤ 6.13,≤ 6.13,≤ 6.13
CC[C@H](C)[C@H](NC(=O)[C@](C)(Cc1ccccc1)NC(=O)[C@H](CCC(=O)O)NC(=O)[C@](C)(CCCCN)NC(=O)[C@H](C)NC(=O)[C@H](C)NC(=O)[C@H](CCC(=O)O)NC(=O)CNC(=O)[C@H](CCC(=O)O)NC(=O)[C@H](CC(C)C)NC(=O)[C@](C)(Cc1ccccc1)NC(=O)[C@H](CO)NC(=O)[C@](C)(CO)NC(=O)[C@@H](NC(=O)[C@H](CC(=O)O)NC(=O)CNC(=O)[C@@H](NC(=O)[C@](C)(Cc1ccccc1)NC(=O)[C@H](CO)NC(=O)CNC(=O)[C@H](CCC(=O)O)NC(=O)C(C)(C)NC(=O)[C@@H](N)Cc1c[nH]cn1)[C@@H](C)O)C(C)C)C(=O)N[C@@H](C)C(=O)N[C@@](C)(Cc1ccccc1)C(=O)N[C@H](C(=O)N[C@H](C(=O)N[C@@](C)(CCCCN)C(=O)NCC(=O)NCC(N)=O)C(C)C)C(C)C [compound 25] (H-H[Aib]EGS[αMeF]TGDV[αMeS]S[αMeF]LEGEAA[αMeK]E[αMeF]IA[αMeF]VV[αMeK]GG-NH2),9.30,9.23,544,≤ 7.00,7.66,≤ 7.00,≤ 7.00
CC[C@H](C)[C@H](NC(=O)[C@](C)(Cc1ccccc1)NC(=O)[C@H](CCC(=O)O)NC(=O)[C@](C)(CCCCN)NC(=O)[C@H](C)NC(=O)[C@H](C)NC(=O)[C@H](CCC(=O)O)NC(=O)CNC(=O)[C@H](CCC(=O)O)NC(=O)[C@H](CC(C)C)NC(=O)[C@](C)(Cc1ccccc1)NC(=O)[C@H](CO)NC(=O)[C@](C)(CO)NC(=O)[C@@H](NC(=O)[C@H](CC(=O)O)NC(=O)[C@H](C)NC(=O)[C@@H](NC(=O)[C@](C)(Cc1ccccc1)NC(=O)[C@H](CO)NC(=O)CNC(=O)[C@H](CCC(=O)O)NC(=O)C(C)(C)NC(=O)[C@@H](N)Cc1c[nH]cn1)[C@@H](C)O)C(C)C)C(=O)N[C@@H](C)C(=O)N[C@@](C)(Cc1ccccc1)C(=O)N[C@H](C(=O)N[C@H](C(=O)N[C@@](C)(CCCCN)C(=O)NCC(=O)NCC(N)=O)C(C)C)C(C)C [compound 26] (H-H[Aib]EGS[αMeF]TADV[αMeS]S[αMeF]LEGEAA[αMeK]E[αMeF]IA[αMeF]VV[αMeK]GG-NH2),10.00,9.82,123,≤ 7.00,7.52,≤ 7.00,≤ 7.00
CC[C@H](C)[C@H](NC(=O)[C@](C)(Cc1ccccc1)NC(=O)[C@H](CCC(=O)O)NC(=O)[C@](C)(CCCCN)NC(=O)[C@H](C)NC(=O)[C@H](C)NC(=O)[C@H](CCC(=O)O)NC(=O)CNC(=O)[C@H](CCC(=O)O)NC(=O)[C@H](CC(C)C)NC(=O)[C@](C)(Cc1ccccc1)NC(=O)[C@H](CO)NC(=O)[C@](C)(CO)NC(=O)[C@@H](NC(=O)[C@H](CC(=O)O)NC(=O)[C@H](CC(=O)O)NC(=O)[C@@H](NC(=O)[C@](C)(Cc1ccccc1)NC(=O)[C@H](CO)NC(=O)CNC(=O)[C@H](CCC(=O)O)NC(=O)C(C)(C)NC(=O)[C@@H](N)Cc1c[nH]cn1)[C@@H](C)O)C(C)C)C(=O)N[C@@H](C)C(=O)N[C@@](C)(Cc1ccccc1)C(=O)N[C@H](C(=O)N[C@H](C(=O)N[C@@](C)(CCCCN)C(=O)NCC(=O)NCC(N)=O)C(C)C)C(C)C [compound 27] (H-H[Aib]EGS[αMeF]TDDV[αMeS]S[αMeF]LEGEAA[αMeK]E[αMeF]IA[αMeF]VV[αMeK]GG-NH2; N-terminus assumed),9.38,9.32,446,≤ 7.00,7.40,≤ 7.00,≤ 7.00
CC[C@H](C)[C@H](NC(=O)[C@](C)(Cc1ccccc1)NC(=O)[C@H](CCC(=O)O)NC(=O)[C@](C)(CCCCN)NC(=O)[C@H](C)NC(=O)[C@H](C)NC(=O)[C@H](CCC(=O)O)NC(=O)CNC(=O)[C@H](CCC(=O)O)NC(=O)[C@H](CC(C)C)NC(=O)[C@](C)(Cc1ccccc1)NC(=O)[C@H](CO)NC(=O)[C@](C)(CO)NC(=O)[C@@H](NC(=O)[C@H](CC(=O)O)NC(=O)[C@@H](NC(=O)[C@@H](NC(=O)[C@](C)(Cc1ccccc1)NC(=O)[C@H](CO)NC(=O)CNC(=O)[C@H](CCC(=O)O)NC(=O)C(C)(C)NC(=O)[C@@H](N)Cc1c[nH]cn1)[C@@H](C)O)C(C)C)C(C)C)C(=O)N[C@@H](C)C(=O)N[C@@](C)(Cc1ccccc1)C(=O)N[C@H](C(=O)N[C@H](C(=O)N[C@@](C)(CCCCN)C(=O)NCC(=O)NCC(N)=O)C(C)C)C(C)C [compound 30] (H-H[Aib]EGS[αMeF]TVDV[αMeS]S[αMeF]LEGEAA[αMeK]E[αMeF]IA[αMeF]VV[αMeK]GG-NH2; N-terminus assumed),7.10,7.01,88600,≤ 7.00,≤ 7.00,≤ 7.00,≤ 7.00
CCCCCCCCCCCCCCCC(=O)N[C@@H](CCC(=O)NCCCC[C@H](NC(=O)CNC(=O)CNC(=O)[C@](C)(CCCCN)NC(=O)[C@@H](NC(=O)[C@@H](NC(=O)[C@](C)(Cc1ccccc1)NC(=O)[C@H](C)NC(=O)[C@@H](NC(=O)[C@](C)(Cc1ccccc1)NC(=O)[C@H](CCC(=O)O)NC(=O)[C@](C)(CCCCN)NC(=O)[C@H](C)NC(=O)[C@H](C)NC(=O)[C@H](CCC(=O)O)NC(=O)CNC(=O)[C@H](CCC(=O)O)NC(=O)[C@H](CC(C)C)NC(=O)[C@](C)(Cc1ccccc1)NC(=O)[C@H](CO)NC(=O)[C@](C)(CO)NC(=O)[C@@H](NC(=O)[C@H](CC(=O)O)NC(=O)[C@H](CO)NC(=O)[C@@H](NC(=O)[C@](C)(Cc1ccccc1)NC(=O)[C@H](CO)NC(=O)CNC(=O)[C@H](CCC(=O)O)NC(=O)C(C)(C)NC(=O)[C@@H](N)Cc1c[nH]cn1)[C@@H](C)O)C(C)C)[C@@H](C)CC)C(C)C)C(C)C)C(N)=O)C(=O)O [compound 32] (H-H[Aib]EGS[αMeF]TSDV[αMeS]S[αMeF]LEGEAA[αMeK]E[αMeF]IA[αMeF]VV[αMeK]GGK([γGlu-Palmitoyl])-NH2),10.44,10.74,27,≤ 7.05,≤ 7.05,≤ 7.05,≤ 7.05
CCCCCCCCCCCCCCCC(=O)N[C@@H](CCC(=O)NCCCC[C@H](NC(=O)[C@H](C)NC(=O)[C@H](C)NC(=O)[C@H](CCC(=O)O)NC(=O)CNC(=O)[C@H](CCC(=O)O)NC(=O)[C@H](CC(C)C)NC(=O)[C@](C)(Cc1ccccc1)NC(=O)[C@H](CO)NC(=O)[C@](C)(CO)NC(=O)[C@@H](NC(=O)[C@H](CC(=O)O)NC(=O)[C@H](CO)NC(=O)[C@@H](NC(=O)[C@](C)(Cc1ccccc1)NC(=O)[C@H](CO)NC(=O)CNC(=O)[C@H](CCC(=O)O)NC(=O)C(C)(C)NC(=O)[C@@H](N)Cc1c[nH]cn1)[C@@H](C)O)C(C)C)C(=O)N[C@@H](CCC(=O)O)C(=O)N[C@@](C)(Cc1ccccc1)C(=O)N[C@H](C(=O)N[C@@H](C)C(=O)N[C@@](C)(Cc1ccccc1)C(=O)N[C@H](C(=O)N[C@H](C(=O)N[C@@](C)(CCCCN)C(=O)NCC(=O)NCC(N)=O)C(C)C)C(C)C)[C@@H](C)CC)C(=O)O [compound 34],10.41,10.32,43,≤ 7.03,≤ 7.03,≤ 7.03,≤ 7.03
